Source: US20130225548A1, “Pyridine Derivative and Medicinal Agent” (NIPPON SHINYAKU CO., LTD., priority 2010, published 2013)
Where a name gives a salt, the structure may show the parent alone.

molecular target: T1, Syk tyrosine kinase (Homo sapiens, UniProt P43405); assay: Test for Syk tyrosine kinase inhibitory activity (ELISA); type: biochemical; settings: Syk tyrosine kinase (Carna Biosciences), 25 μM ATP in substrate solution, 30° C. 1 hour, n=2; read-out: Evaluation (IC50, concentration inhibiting the tyrosine kinase activity at 50%)
T1 construct: purchased Carna Biosciences, Inc
Summary of the method: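 Syk kinase (0.025 nM stock before addition) with 625 nM biotinylated peptide and 25 μM ATP (substrate-solution levels) in Tris pH 7.5, MgCl2, DTT; 1 h at 30 °C on streptavidin plates. Phosphotyrosine detected by HRP anti-pTyr antibody, TMB, A450; IC50 by non-linear regression.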

| IC50 [nM] | Structure (SMILES) |
| --- | --- |
| 50 to 500 | N#Cc1ccnc(Nc2cc(C3CC3)cc(-c3ccc4c(c3)ncn4Cc3ccccc3)n2)c1 [Example 137, 2-{[6-(1-benzyl-1H-benzimidazol-5-yl)-4-cyclopropylpyridin-2-yl]amino}pyridine-4-carbonitrile hydrochloride] |
| 50 to 500 | CO[C@H]1CC[C@H](n2cnc3ccc(-c4cc(C5CC5)cc(Nc5cc(C#N)ccn5)n4)cc32)CC1 [Example 138, 2-({4-cyclopropyl-6-[1-(trans-4-methoxycyclohexyl)-1H-benzimidazol-6-yl]pyridin-2-yl}amino)pyridine-4-carbonitrile hydrochloride] |
| 5 to 50 | N#Cc1ccnc(Nc2cc(C3CC3)cc(-c3ccc4ncn(C5CCOCC5)c4c3)n2)c1 [Example 139, 2-({4-cyclopropyl-6-[1-(tetrahydro-2H-pyran-4-yl)-1H-benzimidazol-6-yl]pyridin-2-yl}amino)pyridine-4-carbonitrile hydrochloride] |
| 5 to 50 | N#Cc1ccnc(Nc2cc(C3CC3)cc(-c3ccc4ncn(C5CCCC5O)c4c3)n2)c1 (stereo not drawn) [Example 140, 2-[(4-cyclopropyl-6-{1-[trans-2-hydroxycyclopenyl]-1H-benzimidazol-6-yl}pyridine-2-yl)amino]pyridine-4-carbonitrile hydrochloride] |
| 50 to 500 | CCn1cnc2ccc(-c3cc(C4CC4)cc(Nc4cc(C#N)ccn4)n3)cc21 [Example 142, 2-{[4-cyclopropyl-6-(1-ethyl-1H-benzimidazol-6-yl)pyridin-2-yl]amino}pyridine-4-carbonitrile hydrochloride] |
| 5 to 50 | N#Cc1ccnc(Nc2cc(C3CC3)cc(-c3ccc4ncn(C(CO)CO)c4c3)n2)c1 [Example 143, 2-({4-cyclopropyl-6-[1-(1,3-dihydroxypropan-2-yl)-1H-benzimidazol-6-yl]pyridin-2-yl}amino)pyridine-4-carbonitrile hydrochloride] |
| 50 to 500 | CC(C)(O)Cn1cnc2ccc(-c3cc(C4CC4)cc(Nc4cc(C#N)ccn4)n3)cc21 [Example 144, 2-({4-cyclopropyl-6-[1-(2-hydroxy-2-methylpropyl)-1H-benzimidazol-6-yl]pyridin-2-yl}amino)pyridine-4-carbonitrile hydrochloride] |
| 5 to 50 | N#Cc1ccnc(Nc2cc(C3CC3)cc(-c3ccc4ncn([C@H]5CC[C@@H](O)CC5)c4c3)n2)c1 [Example 145, 2-({4-cyclopropyl-6-[1-(cis-4-hydroxycyclohexyl)-1H-benzimidazol-6-yl]pyridin-2-yl}amino)pyridine-4-carbonitrile hydrochloride] |
| 50 to 500 | N#Cc1ccnc(Nc2cc(C3CC3)cc(-c3ccc4c(c3)ncn4CCO)n2)c1 [Example 147, 2-({4-cyclopropyl-6-[1-(2-hydroxyethyl)-1H-benzimidazol-5-yl]pyridin-2-yl}amino)pyridine-4-carbonitrile hydrochloride] |
| 50 to 500 | COCCn1cnc2cc(-c3cc(C4CC4)cc(Nc4cc(C#N)ccn4)n3)ccc21 [Example 148, hydrochloride] |
| 50 to 500 | CCn1cnc2cc(-c3cc(C4CC4)cc(Nc4cc(C#N)ccn4)n3)ccc21 [Example 149, 2-{[4-cyclopropyl-6-(1-ethyl-1H-benzimidazol-5-yl)pyridin-2-yl]amino}pyridine-4-carbonitrile hydrochloride] |
| 50 to 500 | N#Cc1ccnc(Nc2cc(C3CC3)cc(-c3ccc4c(c3)ncn4C3CC3)n2)c1 [Example 150, 2-{[4-cyclopropyl-6-(1-cyclopropyl-1H-benzimidazol-5-yl)pyridin-2-yl]amino}pyridin-4-carbonitrile hydrochloride] |
| 5 to 50 | CC(=O)NCCn1cnc2cc(-c3cc(C4CC4)cc(Nc4cc(C#N)ccn4)n3)ccc21 [Example 151, N-[2-(5-{6-[(4-cyanopyridin-2-yl)amino]-4-cyclopropylpyridin-2-yl}-1H-benzimidazol-1-yl)ethyl]acetamide hydrochloride] |
| 5 to 50 | Cn1cnc2ccc(-c3cc(C4CC4)cc(Nc4cc(C#N)ccn4)n3)cc21 [Example 153, 2-{[4-cyclopropyl-6-(1-methyl-1H-benzimidazol-6-yl)pyridin-2-yl]amino}pyridine-4-carbonitrile hydrochloride] |
| 50 to 500 | N#Cc1ccnc(Nc2cc(C3CC3)cc(-c3ccc(CN4CCCN(C(N)=O)CC4)nc3)n2)c1 [Example 154, 4-({6-[(4-cyanopyridin-2-yl)amino]-4-cyclopropyl-2,3′-bipyridin-6′-yl}methyl)-1,4-diazepane-1-carboxamide hydrochloride] |
| 5 to 50 | Cc1cc(N2CCS(=O)(=O)CC2)ncc1-c1cc(C2CC2)cc(Nc2cc(C#N)ccn2)n1 [Example 155, 2-{[4-cyclopropyl-6′-(1,1-dioxidethiomorpholin-4-yl)-4′-methyl-2,3′-bipyridin-6-yl]amino}pyridine-4-carbonitrile hydrochloride] |

| IC50 [nM] | Structure (SMILES) |
| --- | --- |
| < 5 | N#Cc1ccnc(Nc2cc(C3CC3)cc(-c3ccc4[nH]c(=O)n([C@H]5CC[C@H](O)CC5)c4c3)n2)c1 [Example 156, 2-({4-cyclopropyl-6-[3-(trans-4-hydroxycyclohexyl)-2oxo-2,3-dihydro-1H-benzimidazol-5-yl]pyridin-2-yl}amino)pyridine-4-carbonitrile hydrochloride] |
| < 5 | N#Cc1ccnc(Nc2cc(C3CC3)cc(-c3ccc4ccnc(N5CCNC(=O)C5)c4c3)n2)c1 [Example 158, 2-({4-cyclopropyl-6-[1-(3-oxopiperazin-1-yl)isoquinolin-7-yl]pyridin-2-yl}amino)pyridine-4-carbonitrile hydrochloride] |
| < 5 | Cc1nc2ccc(-c3cc(C4CC4)cc(Nc4cc(C#N)ccn4)n3)cc2n1[C@H]1CC[C@H](O)CC1 [Example 159, 2-({4-cyclopropyl-6-[1-trans-4-hydroxycylohexyl)-2-methyl-1H-benzimidazol-6-yl]pyridin-2-yl}amino)pyridine-4-carbonitrile hydrochloride] |
| < 5 | CC(C)c1nc2ccc(-c3cc(C4CC4)cc(Nc4cc(C#N)ccn4)n3)cc2n1[C@H]1CC[C@H](O)CC1 [Example 161, 2-({4-cyclopropyl-6-[1-(trans-4-hydroxycyclohexyl)-2-(propan-2-yl)-1H-benzimidazol-6-yl]pyridin-2-y}amino)pyridine-4-carbonitrile hydrochloride] |
| < 5 | N#Cc1ccnc(Nc2cc(C3CC3)cc(-c3ccc4nc(CO)n([C@H]5CC[C@H](O)CC5)c4c3)n2)c1 [Example 162, 2-({4-cyclopropyl-6-[1-(trans-4-hydroxycyclohexyl)-2-(hydroxymethyl)-1H-benzimidazol-6-yl]pyridin-2-yl}amino)pyridine-4-carbonitrile hydrochloride] |
| 5 to 50 | N#Cc1ccnc(Nc2cc(C3CC3)cc(-c3ccc4ccnc(N5CCNCC5)c4c3)n2)c1 [Example 163, 2-({4-cyclopropyl-6-[1-(piperazin-1-yl)isoquinolin-7-yl]pyridin-2-yl}amino)pyridine-4-carbonitrile hydrochloride] |
| 5 to 50 | N#Cc1ccnc(Nc2cc(C3CC3)cc(-c3ccc4ccnc(N5CCC(O)CC5)c4c3)n2)c1 [Example 164, 2-({4-cyclopropyl-6-[1-(4-hydroxypiperidin-1-yl)isoquinolin-7-yl]pyridin-2-yl}amino)pyridine-4-carbonitrile hydrochloride] |
| 5 to 50 | N#Cc1ccnc(Nc2cc(C3CC3)cc(-c3ccc4ccnc(N5CC[C@@H](O)C5)c4c3)n2)c1 [Example 165, 2-[(4-cyclopropyl-6-{1-[(3R)-3-hydroxypyrrolidin-1-]isoquinolin-7-yl}pyridin-2-yl)amino]pyridine-4-carbonitrile hydrochloride] |
| 5 to 50 | N#Cc1ccnc(Nc2cc(C3CC3)cc(-c3ccc4ccnc(N5CC(O)C5)c4c3)n2)c1 [Example 166, 2-({4cyclopropyl-6-[1-(3-hydroxyazetidin-1-yl)isoquinolin-7-yl]pyridin-2-yl}amino)pyridine-4-carbonitrile hydrochloride] |
| 5 to 50 | N#Cc1ccnc(Nc2cc(C3CC3)cc(-c3ccc4ccnc(N5CCC[C@H]5CO)c4c3)n2)c1 [Example 167, 2-[(4-cyclopropyl-6-{1-[(2S)-2-(hydroxymethyl)pyrrolidin-1-yl]isoquinolin-7-yl}pyridin-2-yl)amino]pyridine-4-carbonitrile hydrochloride] |
| 50 to 500 | N#Cc1ccnc(Nc2cc(C3CC3)cc(-c3ccc4ccnc(N5CC[C@@H](F)C5)c4c3)n2)c1 [Example 168, 2-[(4-cyclopropyl-6-{1-[(3R)-3-fluoropyrrolidin-1-yl]isoquinolin-7-yl}-pyridin-2-yl)amino]pyridine-4-carbonitrile hydrochloride] |
| 5 to 50 | N#Cc1ccnc(Nc2cc(C3CC3)cc(-c3ccc4ccnc(N5CC[C@@H](N)C5)c4c3)n2)c1 [Example 169, hydrochloride] |
| 5 to 50 | N#Cc1ccnc(Nc2cc(C3CC3)cc(-c3ccc4ccnc(N5CCNC5=O)c4c3)n2)c1 [Example 171, 2-({4-cyclopropyl-6-[1-(2-oxo-imidazolidin-1-yl)isoquinolin-7-yl]pyridin-2-yl}amino)pyridine-4-carbonitrile hydrochloride] |
| 5 to 50 | N#Cc1ccnc(Nc2cc(C3CC3)cc(-c3ccc4ncn([C@H]5CC[C@H](N)CC5)c4c3)n2)c1 [Example 172, 2-({6-[1-(trans-4-aminocyclohexyl)-1H-benzimidazol-6-yl]-4-cyclopropylpyridin-2-yl}amino)pyridine-4-carbonitrile hydrochloride] |
| < 5 | N#Cc1ccnc(Nc2cc(C3CC3)cc(-c3ccc4ncn(C5CCNCC5)c4c3)n2)c1 [Example 173, hydrochloride] |
| 5 to 50 | N#Cc1ccnc(Nc2cc(C3CC3)cc(-c3ccc4ncn(Cc5ccc(=O)[nH]c5)c4c3)n2)c1 [Example 174, 2-({4-cyclopropyl-6-[1-[(6-oxo-1,6-dihydropyridin-3-yl)methyl]-1H-benzimidazol-6-yl}pyridin-2-yl)amino]pyridine-4-carbonitrile hydrochloride] |
